Source: patent US12060349B2, “Glucosylceramide synthase inhibitors” (Genzyme Corporation, priority 2012, dated 2024)

How the values were obtained:
[1] = molecular target: T1, glucosylceramide synthase (Homo sapiens, UniProt Q16739); experiment: microsomal assay measuring conversion of ceramide to glucosylceramide by HPLC (GCS IC50); format: biochemical; conditions: concentration causing 50% inhibition of glucosylceramide synthase activity
T1 construct: Microsomes were isolated from A375 human melanoma cells; endogenous in cells; host or cells: A375 human melanoma cells (microsomal fraction, 100,000 g pellet)
T1 sequence (Q16739 1-394): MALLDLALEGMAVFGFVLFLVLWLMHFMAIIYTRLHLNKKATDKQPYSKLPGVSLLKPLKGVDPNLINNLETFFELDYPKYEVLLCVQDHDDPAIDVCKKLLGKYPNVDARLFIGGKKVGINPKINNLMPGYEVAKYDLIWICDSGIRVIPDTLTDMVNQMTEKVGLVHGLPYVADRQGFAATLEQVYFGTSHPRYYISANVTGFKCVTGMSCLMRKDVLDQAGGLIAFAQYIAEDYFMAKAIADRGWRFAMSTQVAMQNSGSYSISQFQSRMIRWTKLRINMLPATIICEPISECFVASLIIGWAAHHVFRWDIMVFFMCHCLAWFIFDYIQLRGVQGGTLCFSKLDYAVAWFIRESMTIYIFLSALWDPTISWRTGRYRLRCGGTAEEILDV
Outline: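 IC50 is the compound concentration halving glucosylceramide synthase activity. Activity was measured in microsomes, with HPLC quantifying glucosylceramide formed from ceramide.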

[2] = tested on: GM3 expression on the cell surface, B16 mouse melanoma cells; experiment: cell based phenotypic assay, cell surface GM3 by antibody mediated immunofluorescence, B16 (GM3 B16 IC50); conditions: Mus musculus, B16 mouse melanoma cells; 50% inhibition of GM3 expression on the cell surface; read-out: GM3 B16 IC50
Outline: (§1)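 Two melanoma lines, mouse B16 and human C32, were treated and surface GM3 quantified by antibody immunofluorescence for IC50. A parallel viability readout gives the concentration killing 50% of cells, with values over 10 indicating no cell death.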

[3] = tested on: GM3 expression on the cell surface, C32 human melanoma cells; experiment: cell based phenotypic assay, cell surface GM3 by antibody mediated immunofluorescence, C32 (GM3 C32 IC50); conditions: Homo sapiens, C32 human melanoma cells; 50% inhibition of GM3 expression on the cell surface; read-out: GM3 C32 IC50
Outline: as §1

B16 mouse melanoma cells = experiment: cell viability in the B16 cell-based assay (Viability, B16 IC50); conditions: Mus musculus, B16, B16 cells; concentration causing 50% cell death; values greater than 10 represent a lack of cell death; read-out: Viability, B16 IC50
Outline: (§2)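 Viability readouts were run alongside the GM3 cell-surface assay in the same B16 and C32 cultures. A figure above 10 indicates no cell death.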

C32 human melanoma cells = experiment: cell viability in the C32 cell-based assay (Viability, C32 IC50); conditions: Homo sapiens, C32, C32 cells; concentration causing 50% cell death; values greater than 10 represent a lack of cell death; read-out: Viability, C32 IC50
Outline: as §2

IC50 [1] [nM] | IC50 [2] [nM] | IC50 [3] [nM] | Structure (SMILES) | IC50 (B16 mouse melanoma cells) [nM] | IC50 (C32 human melanoma cells) [nM]
42.3 | 226 | 2.26 | CC1(NC(=O)C2(F)CCN(c3nccc(OC4CCOCC4)n3)CC2)CCN2CCC1CC2 (stereo not drawn) [Example 123, 4-Fluoro-N-(4-methyl-1-azabicyclo[3.2.2]nonan-4-yl)-1-(4-((tetrahydro-2H-pyran-4-yl)oxy)pyrimidin-2-yl)piperidine-4-carboxamide] | ≥ 10000 | 1000
0.553 | 17.8 | 0.0849 | CC1(NC(=O)C2(F)CCN(c3nccc(OCc4ccc(F)cc4)n3)CC2)CCN2CCC1CC2 (stereo not drawn) [Example 124, 4-Fluoro-1-(4-((4-fluorobenzyl)oxy)pyrimidin-2-yl)-N-(4-methyl-1-azabicyclo[3.2.2]nonan-4-yl)piperidine-4-carboxamide] | 3420 | 100
1.57 | 36 | 0.726 | CC1(NC(=O)C2(F)CCN(c3cncc(Oc4ccc(F)cc4)n3)CC2)CCN2CCC1CC2 (stereo not drawn) [Example 126, 4-Fluoro-1-(6-(4-fluorophenoxy)pyrazin-2-yl)-N-(4-methyl-1-azabicyclo[3.2.2]nonan-4-yl)piperidine-4-carboxamide] | 6260 | 1000
2.27 | 106 | 0.569 | CC1(NC(=O)C2(F)CCN(c3cncc(Oc4ccc(F)cc4)c3)CC2)CCN2CCC1CC2 (stereo not drawn) [Example 127, 4-Fluoro-1-(5-(4-fluorophenoxy)pyridin-3-yl)-N-(4-methyl-1-azabicyclo[3.2.2]nonan-4-yl)piperidine-4-carboxamide] | 6980 | 316
19.8 | 654 | 3.4 | CC1(NC(=O)C2(F)CCN(c3ncnc(OCc4ccc(F)cc4)n3)CC2)CCN2CCC1CC2 (stereo not drawn) [Example 128, 4-Fluoro-1-(4-((4-fluorobenzyl)oxy)-1,3,5-triazin-2-yl)-N-(4-methyl-1-azabicyclo[3.2.2]nonan-4-yl)piperidine-4-carboxamide] | ≥ 10000 | 1000
0.889 | 16.9 | 0.156 | CC1(NC(=O)C2CCN(c3ncc(Oc4ccc(F)cc4)cn3)CC2)CCN2CCC1CC2 (stereo not drawn) [Example 130, 1-(5-(4-Fluorophenoxy)pyrimidin-2-yl)-N-(4-methyl-1-azabicyclo[3.2.2]nonan-4-yl)piperidine-4-carboxamide] | 5670 | 316
10.7 | 115 | 2.65 | CC1(NC(=O)C2(F)CCN(c3ncc(OCc4ccc(F)cc4)cn3)CC2)CCN2CCC1CC2 (stereo not drawn) [Example 132, 4-Fluoro-1-(5-((4-fluorobenzyl)oxy)pyrimidin-2-yl)-N-(4-methyl-1-azabicyclo[3.2.2]nonan-4-yl)piperidine-4-carboxamide] | 4590 | 1000
14.5 | 343 | 2.83 | CC1(NC(=O)C2(F)CCN(c3ccc(Oc4ccc(F)cc4)nn3)CC2)CCN2CCC1CC2 (stereo not drawn) [Example 134, 4-Fluoro-1-(6-(4-fluorophenoxy)pyridazin-3-yl)-N-(4-methyl-1-azabicyclo[3.2.2]nonan-4-yl)piperidine-4-carboxamide] | ≥ 10000 | 1000
5.96 | 209 | 0.888 | CC1CN(C(=O)NC2(C)CCN3CCC2CC3)CCN1c1nccc(-c2ccccc2)n1 (stereo not drawn) [Example 141, 3-Methyl-N-(4-methyl-1-azabicyclo[3.2.2]nonan-4-yl)-4-(4-phenylpyrimidin-2-yl)piperazine-1-carboxamide] | 4670 | 316
7.69 | 100 | 0.861 | CCC1CN(C(=O)NC2(C)CCN3CCC2CC3)CCN1c1nccc(-c2ccccc2)n1 (stereo not drawn) [Example 142, 3-Ethyl-N-(4-methyl-1-azabicyclo[3.2.2]nonan-4-yl)-4-(4-phenylpyrimidin-2-yl)piperazine-1-carboxamide] | 5340 | 9210

More lines, now with the values behind:

Structure (SMILES) | IC50 [1] [nM] | IC50 [2] [nM] | IC50 [3] [nM] | IC50 (B16 mouse melanoma cells) [nM] | IC50 (C32 human melanoma cells) [nM]
CC1(NC(=O)C2(F)CCN(c3nccc(Oc4ccc(F)cc4)n3)CC2)CCN2CCC1CC2 (stereo not drawn) [Example 116, 4-Fluoro-1-(4-(4-fluorophenoxy)pyrimidin-2-yl)-N-(4-methyl-1-azabicyclo[3.2.2]nonan-4-yl)piperidine-4-carboxamide] | 1.43 | 15.9 | 0.155 | 5720 | 100
CC1(NC(=O)C2(F)CCN(c3ncnc(Oc4ccc(F)cc4)n3)CC2)CCN2CCC1CC2 (stereo not drawn) [Example 117, 4-Fluoro-1-(4-(4-fluorophenoxy)-1,3,5-triazin-2-yl)-N-(4-methyl-1-azabicyclo[3.2.2]nonan-4-yl)piperidine-4-carboxamide] | 168 | 88.4 | 9.05 | ≥ 10000 | 1000
COCCOc1ccc(Oc2nc(N3CCC(F)(C(=O)NC4(C)CN5CCC4CC5)CC3)ncc2F)cc1 (stereo not drawn) [Example 118, 4-Fluoro-1-(5-fluoro-4-(4-(2-methoxyethoxy)phenoxy)pyrimidin-2-yl)-N-(3-methylquinuclidin-3-yl)piperidine-4-carboxamide] | 2.54 | 63.4 | 1.16 | 4640 | 1000
CC1(NC(=O)C2(F)CCN(c3nccc(Oc4ccc(C#N)cc4)n3)CC2)CN2CCC1CC2 (stereo not drawn) [Example 119, 1-(4-(4-Cyanophenoxy)pyrimidin-2-yl)-4-fluoro-N-(3-methylquinuclidin-3-yl)piperidine-4-carboxamide] | 6.71 | 54.4 | 0.476 | ≥ 10000 | 316
CC1(NC(=O)C2(F)CCN(c3nccc(Oc4ccc(C#N)cc4)n3)CC2)CCN2CCC1CC2 (stereo not drawn) [Example 120, 1-(4-(4-Cyanophenoxy)pyrimidin-2-yl)-4-fluoro-N-(4-methyl-1-azabicyclo[3.2.2]nonan-4-yl)piperidine-4-carboxamide] | 4.12 | 18.8 | 0.332 | ≥ 10000 | 316
CC1(NC(=O)C2(F)CCN(c3ncc(C#N)c(Oc4ccc(F)cc4)n3)CC2)CN2CCC1CC2 (stereo not drawn) [Example 122, 1-(5-Cyano-4-(4-fluorophenoxy)pyrimidin-2-yl)-4-fluoro-N-(3-methylquinuclidin-3-yl)piperidine-4-carboxamide] | 4.41 | 112 | 0.639 | ≥ 10000 | 316
CC1(NC(=O)C2(F)CCN(c3nccc(OCc4ccc(F)cc4)n3)CC2)CN2CCC1CC2 (stereo not drawn) [Example 125, 4-Fluoro-1-(4-((4-fluorobenzyl)oxy)pyrimidin-2-yl)-N-(3-methylquinuclidin-3-yl)piperidine-4-carboxamide] | 0.643 | 17.7 | 0.0509 | 4290 | 158
CC1(NC(=O)C2(F)CCN(c3ncc(Oc4ccc(F)cc4)cn3)CC2)CN2CCC1CC2 (stereo not drawn) [Example 129, 4-Fluoro-1-(5-(4-fluorophenoxy)pyrimidin-2-yl)-N-(3-methylquinuclidin-3-yl)piperidine-4-carboxamide] | 4.27 | 97.8 | 0.38 | 8260 | 316
CC1(NC(=O)C2(F)CCN(c3cnc(Oc4ccc(F)cc4)cn3)CC2)CN2CCC1CC2 (stereo not drawn) [Example 133, 4-Fluoro-1-(5-(4-fluorophenoxy)pyrazin-2-yl)-N-(3-methylquinuclidin-3-yl)piperidine-4-carboxamide] | 45.9 | 467 | 4.83 | ≥ 10000 | 1000
CC1(NC(=O)C2(F)CCN(c3nccc(COc4ccc(F)cc4)n3)CC2)CN2CCC1CC2 (stereo not drawn) [Example 135, 4-Fluoro-1-(4-((4-fluorophenoxy)methyl)pyrimidin-2-yl)-N-(3-methylquinuclidin-3-yl)piperidine-4-carboxamide] | 1.38 | 31.7 | 0.132 | 8250 | 46.4
COCCOc1ccc(Cc2cnc(N3CCC(F)(C(=O)NC4(C)CN5CCC4CC5)CC3)nc2)cc1 (stereo not drawn) [Example 136] | 7.9 | 24.9 | 0.716 | ≥ 10000 | 1000
